The values below come from US9533977B2, “Oxazolidinone derivative as CETP inhibitor, its preparation method, and pharmaceutical composition comprising the same” (DONG-A ST CO., LTD., priority 2013, dated 2017).

This assay deals with T1, CETP (Homo sapiens, UniProt P11597).
T1 construct: from tissue; host or cells: human plasma from healthy men
T1 sequence (P11597 18-493): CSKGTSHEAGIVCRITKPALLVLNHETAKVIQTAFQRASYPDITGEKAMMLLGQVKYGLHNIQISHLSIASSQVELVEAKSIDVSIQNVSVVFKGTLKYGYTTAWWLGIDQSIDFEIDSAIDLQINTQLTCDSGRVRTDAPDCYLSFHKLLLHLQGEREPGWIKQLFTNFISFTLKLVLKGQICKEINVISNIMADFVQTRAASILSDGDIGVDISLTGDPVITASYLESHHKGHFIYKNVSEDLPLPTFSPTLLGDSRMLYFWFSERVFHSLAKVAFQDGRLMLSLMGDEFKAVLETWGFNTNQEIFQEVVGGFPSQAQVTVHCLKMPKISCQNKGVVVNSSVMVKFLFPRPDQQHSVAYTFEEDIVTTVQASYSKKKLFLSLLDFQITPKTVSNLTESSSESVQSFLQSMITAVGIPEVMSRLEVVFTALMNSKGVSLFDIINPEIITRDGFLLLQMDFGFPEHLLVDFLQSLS
The experiment in a line: Inhibitory activity against CETP in human plasma (Roar CETP activity kit, fluorescence). Type of assay: biochemical. Particulars: plasma from healthy men diluted 1:10 in assay buffer, 37° C., 3 hrs, fluorescence 465/535 nm; read-out: IC50, Inhibition of CETP Activity in Human Plasma. How it is done:
A CETP activity kit (#RB-CETP) was purchased from Roar […], Inc. A donor and an acceptor (each, 4 ul), a 10× assay buffer (177 ul), and each of dilutions of test compounds in dimethylsulfoxide (DMSO, Sigma-Aldrich) (0.01 nM˜10000 nM) were added to each well of black round-bottom 96-well plates (Corning #3792). Plasma samples from healthy men were diluted in the assay buffer (1:10=plasma:assay buffer), and added to each well. The plates were sealed with a sealing film (Sigma-Aldrich, #Z369659), and incubated in a 37° C. incubator microplate shaker (#SLST-3, Seolin Bio) for 3 hrs. After removal of the sealing film, fluorescence was read on Spectra Max Gemini EM (Molecular devices) with an excitation wavelength of 465 nm and an emission wavelength of 535 nm. Measurements were calculated according to the following formula. Calculated value=(Fluorescence Intensity with both compound and plasma−Fluorescence Intensity with compound but without plasma)/(Fluorescence Intensity with plasma but without compound−Fluorescence Intensity with neither compound nor plasma)
From the calculated value, a sigmoidal curve (y=start+(end-start)x^n/k^n+x^n) was drawn using Origin Software (OriginLab Corporation, ver. 8.0724) to obtain IC50 values.
For orientation: IC50 means the midpoint of a concentration-inhibition curve. As for `C[C@H]1C(c2cc(C(F)(F)F)cc(C(F)(F)F)c2)OC(=O)N1Cc1nc(N2CCCC2)cnc1N(C)C[C@H]1CC[C@H](CC(=O)O)CC1` (some centres unmarked) [Example 127], the half-maximal inhibitory concentration (IC50) amounted to 0.043 µM. In the case of “(4S,5R)-5-[3,5-bis(trifluoromethyl)phenyl]-4-methyl-3-({[2-(ethyl)(cyclohexyl)amino]-5-(2,4-dimethyl-thiazol-5-yl)pyridin-3-yl}methyl)-oxazolidin-2-one [Example 84]”, the IC50 is 0.0297 µM.

For the compound “(4S,5R)-5-[3,5-bis(trifluoromethyl)phenyl]-4-methyl-3-({[2-(ethyl)(cyclohexyl)amino]-5-(3-methoxy-thiophen-2-yl)pyridin-3-yl}methyl)-oxazolidin-2-one [Example 70]”, the IC50 came to 0.0099 µM. Turning to `CCN(c1ncc(C(F)(F)F)cc1CN1C(=O)O[C@H](c2cc(C(F)(F)F)cc(C(F)(F)F)c2)[C@@H]1C)C1CCC2(CC1)OCCO2` [Example 21, (4S,5R)-5-[3,5-bis(trifluoromethyl)phenyl]-4-methyl-3-({[2-(ethyl)(1,4-dioxaspiro[4.5]decan-8-yl)amino]-5-trifluoromethylpyridin-3-yl}methyl)-oxazolidin-2-one], the IC50 came out at 0.114 µM. The result for `CCN(c1ncc(C(F)(F)F)cc1CN1C(=O)O[C@H](c2cc(C(F)(F)F)cc(C(F)(F)F)c2)[C@@H]1C)C1CCN(C(=O)N(C)C)CC1` [Example 37, methyl 4-{[3-({(4S,5R)-5-[3,5-bis(trifluoromethyl)phenyl]-4-methyl-2-oxo-oxazolidin-3-yl}methyl)-5-(trifluoromethyl)pyridin-2-yl](ethyl)amino}-N,N-dimethylpiperidine-1-carboxamide] reads 0.498 µM; that for “(4S,5R)-5-[3,5-bis(trifluoromethyl)phenyl]-4-methyl-3-({2-[(3R,4R)-4-ethoxytetrahydrofuran-3-yl)(methyl)amino]-5-(trifluoromethyl)pyridin-3-yl}methyl)-oxazolidin-2-one [Example 3]”, 0.194 µM; that for `CCN(c1ncc(C(F)(F)F)cc1CN1C(=O)O[C@H](c2cc(C(F)(F)F)cc(C(F)(F)F)c2)[C@@H]1C)C1CCCOC1` (stereo partly drawn) [Example 15, (4S,5R)-5-[3,5-bis(trifluoromethyl)phenyl]-4-methyl-3-({[2-ethyl(tetrahydro-2H-pyran-3-yl)amino]-5-(trifluoromethyl)pyridin-3-yl}methyl)-oxazolidin-2-one], 0.01 µM.

In the case of `CCN(c1ncc(C(F)(F)F)cc1CN1C(=O)O[C@H](c2cc(C(F)(F)F)cc(C(F)(F)F)c2)[C@@H]1C)C1CCC(CC(=O)OC)CC1` (stereo partly drawn) [Example 24, methyl 2-(4-{[3-({(4S,5R)-5-[3,5-bis(trifluoromethyl)phenyl]-4-methyl-2-oxo-oxazolidin-3-yl}methyl)-5-(trifluoromethyl)pyridin-2-yl](ethyl)amino}cyclohexyl)acetate], the IC50 came out at 0.185 µM. On to “(4S,5R)-5-[3,5-bis(trifluoromethyl)phenyl]-4-methyl-3-({[2-(methyl)(cyclohexyl)amino]-5-(3,5-dimethyl-isoxazol-4-yl)pyrazin-3-yl}methyl)-oxazolidin-2-one [Example 95]”, for which the half-maximal inhibitory concentration (IC50) was found to be 0.0038 µM.

With `CCN(c1ncc(C(F)(F)F)cc1CN1C(=O)O[C@H](c2cc(C(F)(F)F)cc(C(F)(F)F)c2)[C@@H]1C)C1CCN(C(=O)OC)CC1` [Example 35, methyl 4-{[3-({(4S,5R)-5-[3,5-bis(trifluoromethyl)phenyl]-4-methyl-2-oxo-oxazolidin-3-yl}methyl)-5-(trifluoromethyl)pyridin-2-yl](ethyl)amino}piperidine-1-carboxylate], the IC50 turned out to be 0.02 µM. In the case of `CCN(c1ncc(F)cc1CN1C(=O)O[C@H](c2cc(C(F)(F)F)cc(C(F)(F)F)c2)[C@@H]1C)C1CCOCC1` [Example 16, (4S,5R)-5-[3,5-Bis(trifluoromethyl)phenyl]-4-methyl-3-({2-[ethyl(tetrahydro-2H-pyran-4-yl)amino]-5-fluoropyridin-3-yl}methyl)-oxazolidin-2-one], the IC50 came to 0.075 µM. `CCN(c1ncc(-c2c[nH]nc2C(F)(F)F)cc1CN1C(=O)O[C@H](c2cc(C(F)(F)F)cc(C(F)(F)F)c2)[C@@H]1C)C1CCCCC1` [Example 72, (4S,5R)-5-[3,5-bis(trifluoromethyl)phenyl]-4-methyl-3-({[2-(ethyl)(cyclohexyl)amino]-5-(3-(trifluoromethyl)-1H-pyrazol-4-yl)pyridin-3-yl}methyl)-oxazolidin-2-one]: the 50% inhibitory concentration (IC50) turned out to be 0.169 µM.

Consider `CCN(CC1CCC(CC(=O)O)CC1)c1ncc(-c2nccs2)nc1CN1C(=O)OC(c2cc(C(F)(F)F)cc(C(F)(F)F)c2)C1C` [Example 112, trans-4-({[3-({(4S,5S)-5-[3,5-bis(trifluoromethyl)phenyl]-4-methyl-2-oxazolidin-3-yl}methyl)-5-(thiazol-2-yl)pyrazin-2-yl]{[N-(ethyl)aminomethyl]cyclohexyl)}acetic acid], for which the 50% inhibitory concentration (IC50) turned out to be 0.0374 µM. Consider `CCN(c1ncc(-c2sccc2C)cc1CN1C(=O)O[C@H](c2cc(C(F)(F)F)cc(C(F)(F)F)c2)[C@@H]1C)C1CCCCC1` [Example 78, (4S,5R)-5-[3,5-bis(trifluoromethyl)phenyl]-4-methyl-3-({[2-(ethyl)(cyclohexyl)amino]-5-(3-methyl-thiophen-2-yl)pyridin-3-yl}methyl)-oxazolidin-2-one], for which the IC50 came out at 0.0177 µM. Regarding `CCCN(c1ncc(C(F)(F)F)cc1CN1C(=O)O[C@H](c2cc(C(F)(F)F)cc(C(F)(F)F)c2)[C@@H]1C)C1CCOCC1` [Example 8, (4S,5R)-5-[3,5-bis(trifluoromethyl)phenyl]-4-methyl-3-({[2-(propyl)(tetrahydro-2H-pyran-4-yl)amino]-5-(trifluoromethyl)pyridin-3-yl}methyl)-oxazolidin-2-one], the 50% inhibitory concentration (IC50) turned out to be 0.014 µM. For `CCN(C[C@H]1CC[C@H](CC(=O)O)CC1)c1ncc(C2CC2)nc1CN1C(=O)OC(c2cc(C(F)(F)F)cc(C(F)(F)F)c2)[C@@H]1C` (some centres unmarked) [Example 121], the IC50 worked out at 0.00388 µM.

As for `CCN(c1ncc(C(F)(F)F)cc1CN1C(=O)O[C@H](c2cc(C(F)(F)F)cc(C(F)(F)F)c2)[C@@H]1C)C1CCN(C(=O)OC(C)(C)C)CC1` [Example 27, t-butyl 4-{[3-({(4S,5R)-5-[3,5-bis(trifluoromethyl)phenyl]-4-methyl-2-oxo-oxazolidin-3-yl}methyl)-5-(trifluoromethyl)pyridin-2-yl](ethyl)amino}piperidine-1-carboxylate], the IC50 was determined as 0.43 µM.

As to `CCN(c1ncc(-c2c(N)noc2C)cc1CN1C(=O)O[C@H](c2cc(C(F)(F)F)cc(C(F)(F)F)c2)[C@@H]1C)C1CCCCC1` [Example 85, (4S,5R)-5-[3,5-bis(trifluoromethyl)phenyl]-4-methyl-3-({[2-(ethyl)(cyclohexyl)amino]-5-(3-amino-5-methyl-isoxazol-4-yl)pyridin-3-yl}methyl)-oxazolidin-2-one], the half-maximal inhibitory concentration (IC50) was determined as 0.0319 µM. `CCN(c1ncc(N2CCC2)cc1CN1C(=O)O[C@H](c2cc(C(F)(F)F)cc(C(F)(F)F)c2)[C@@H]1C)C1CCOCC1` [Example 43, (4S,5R)-5-[3,5-bis(trifluoromethyl)phenyl]-4-methyl-3-({[2-(ethyl)(tetrahydro-2H-pyran-4-yl)amino]-5-(azetidin-1-yl)pyridin-3-yl}methyl)-oxazolidin-2-one]: the half-inhibitory concentration (IC50) is 0.0079 µM. As to `CCN(C[C@H]1CC[C@H](CCO)CC1)c1ncc(-c2c(C)noc2C)nc1CN1C(=O)OC(c2cc(C(F)(F)F)cc(C(F)(F)F)c2)[C@@H]1C` (some centres unmarked) [Example 130], the IC50 amounted to 0.00886 µM. Regarding `C[C@H]1[C@@H](c2cc(C(F)(F)F)cc(C(F)(F)F)c2)OC(=O)N1Cc1cc(C(F)(F)F)cnc1N(C1CCOCC1)C1CC1` [Example 10], the IC50 came to 0.06 µM. As to `CCN(c1ncccc1CN1C(=O)O[C@H](c2cc(C(F)(F)F)cc(C(F)(F)F)c2)[C@@H]1C)C1CCOCC1` [Example 14, (4S,5R)-5-[3,5-Bis(trifluoromethyl)phenyl]-4-methyl-3-({[2-ethyl(tetrahydro-2H-pyran-4-yl)amino]-pyridin-3-yl}methyl)-oxazolidin-2-one], the IC50 turned out to be 0.098 µM. As to `CCN(c1ncc(-c2ccc(C#N)s2)cc1CN1C(=O)O[C@@H](c2cc(C(F)(F)F)cc(C(F)(F)F)c2)[C@@H]1C)C1CCCCC1` [Example 71, 5-{5-({(4S,5S)-5-[3,5-bis(trifluoromethyl)phenyl]-4-methyl-2-oxo-oxazolidin-3-yl}methyl)-6-[(cyclohexyl)(ethyl)amino]pyridin-3-yl}-thiophene-2-carbonitrile], the IC50 worked out at 0.0067 µM.
